Test results: patent US9834558B2, “Substituted bridged urea analogs as sirtuin modulators” (GLAXOSMITHKLINE LLC, priority 2013, dated 2017)
Where two headings read alike, the source gives them in different places. One block for each compound: values may come before it.

Target: T1, SIRT1 (Homo sapiens, UniProt Q96EB6)
T1 sequence (Q96EB6 1-747): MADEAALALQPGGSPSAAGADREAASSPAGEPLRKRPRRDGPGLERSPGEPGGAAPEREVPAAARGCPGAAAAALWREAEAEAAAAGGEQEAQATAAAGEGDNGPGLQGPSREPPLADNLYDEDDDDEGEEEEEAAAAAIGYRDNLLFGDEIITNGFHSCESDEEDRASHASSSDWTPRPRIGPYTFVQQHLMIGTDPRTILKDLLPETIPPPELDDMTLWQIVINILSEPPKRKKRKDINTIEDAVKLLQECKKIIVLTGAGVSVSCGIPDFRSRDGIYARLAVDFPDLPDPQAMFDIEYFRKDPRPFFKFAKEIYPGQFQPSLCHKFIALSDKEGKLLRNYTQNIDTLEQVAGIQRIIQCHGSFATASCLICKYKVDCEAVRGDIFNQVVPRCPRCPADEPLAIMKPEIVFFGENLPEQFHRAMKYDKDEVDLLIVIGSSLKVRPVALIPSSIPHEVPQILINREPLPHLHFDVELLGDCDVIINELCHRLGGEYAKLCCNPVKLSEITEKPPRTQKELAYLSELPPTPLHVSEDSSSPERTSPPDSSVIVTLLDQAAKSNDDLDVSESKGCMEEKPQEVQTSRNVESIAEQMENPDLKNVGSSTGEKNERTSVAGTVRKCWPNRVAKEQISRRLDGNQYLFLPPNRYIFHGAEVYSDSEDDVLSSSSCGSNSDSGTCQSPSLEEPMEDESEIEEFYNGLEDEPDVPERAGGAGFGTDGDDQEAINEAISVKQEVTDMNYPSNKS
Experiment: Trp mass spectrometry assay of SIRT1 activation
Type: biochemical
Conditions: for TRP Activity (EC1.5): EC1.5 = concentration that results in 150% activation of SIRT1
Procedure, shortened: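 N-terminal His-tagged human SIRT1 (10 nM, E. coli BL21(DE3)) with 0.5 μM Ac-RHKK(Ac)W-NH2 peptide and 120 μM βNAD+, 25 min at 25 °C in HEPES pH 7.5, formic acid stop. OAADPR or deacetylated peptide quantified by mass spectrometry; EC1.5 (50% activity increase over control) and Percent Maximum Activation reported.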

[1] = Trp peptide assay, maximum activity relative to control (100%), read-out: TRP MAX RESP (percent maximum fold activation)
[2] = Trp mass spectrometry assay, EC1.5 = concentration of test compound that results in 150% activation of SIRT1
[3] = concentration giving 150% activation of SIRT1, Trp peptide substrate
[4] = Trp peptide substrate, concentration giving 150% activation of SIRT1
[5] = Trp mass spectrometry assay, concentration of test compound giving 150% activation of SIRT1

- Tryp AVG EC1.5 (μM) [2]: A (A (EC1.5<1 μM))
SMILES: Cc1nc(-c2cccc(NC(=O)N3c4nc(-c5cccc(C(F)(F)F)c5)ccc4N4CC[C@H]3C4)c2)cs1 [Example 583]

- Tryp AVG EC1.5 (μM) [3]: B (B (EC1.5 1-25 μM))
SMILES: O=C(NCCCCn1ccnc1)N1c2nc(-c3cccc(C(F)(F)F)c3)ccc2N2CC[C@H]1C2 [Example 689]

- Tryp AVG EC1.5 (μM) [2]: A (A (EC1.5<1 μM))
SMILES: O=C(Nc1cccc(C2CCNC2)c1)N1c2nc(-c3cccc(C(F)(F)F)c3)ccc2N2CC[C@H]1C2 (stereo partly shown) [Example 593]

- Tryp AVG EC1.5 (μM) [3]: A (A (EC1.5<1 μM))
SMILES: O=C(Nc1nnc(-c2cccnc2)o1)N1c2nc(-c3cccc(C(F)(F)F)c3)ccc2N2CC[C@H]1C2 [Example 721]

- TRP Activity (EC1.5) (Trp peptide assay): C (C (EC1.5>25 μM))
- Emax [1]: < 150%
SMILES: Cc1cc(C)c(-c2ccc3c(n2)N(C(=O)Nc2cnccn2)[C@H]2CCN3C2)cn1 [(9S)-5-(4,6-dimethylpyridin-3-yl)-9-N-(pyrazin-2-yl)-1,6,8-triazatricyclo[7.2.1.0 {2,7}]dodeca-2(7),3,5-triene-8-carboxamide]

- TRP Activity (EC1.5) (Trp peptide assay): C (C (EC1.5>25 μM))
- Emax [1]: < 150%
SMILES: Cc1cc(-c2ccc3c(n2)N(C(=O)N2CCOCC2)[C@H]2CCN3C2)ccn1 [(9S)-5-(2-methylpyridin-4-yl)-8-[(morpholin-4-yl)carbonyl]-1,6,8-triazatricyclo[7.2.1.0 {2,7}]dodeca-2,4,6-triene]

- Tryp AVG EC1.5 (μM) [5]: A (A (EC1.5<1 μM))
SMILES: O=C(Nc1ccc(F)cn1)N1c2nc(-c3ccnc(N4CCC(C(F)(F)F)C4)c3)ccc2N2CC[C@H]1C2 (stereo partly shown) [Example 391]

- Tryp AVG EC1.5 (μM) [5]: A (A (EC1.5<1 μM))
SMILES: O=C(Nc1cnccn1)N1c2nc(-c3cncc(Cl)c3)ccc2N2CCC[C@H]1C2 [Example 417]

- Tryp AVG EC1.5 (μM) [3]: A (A (EC1.5<1 μM))
SMILES: O=C(Nc1cccnc1)N1c2nc(-c3cccc(C(F)(F)F)c3)ccc2N2C[C@@H](O)[C@H]1C2 [Example 663]

- Tryp AVG EC1.5 (μM) [5]: B (B (EC1.5 1-25 μM))
SMILES: COc1ccc(-c2ccc3c(n2)N(C(=O)Nc2ccccn2)[C@H]2CCN3C2)cn1 [Example 342]

- Tryp AVG EC1.5 (μM) [4]: A (A (EC1.5<1 μM))
SMILES: O=C(Nc1cnccn1)N1c2nc(-c3cccc(Cl)c3)ccc2N2CC[C@H]1C2 [Example 101]

- TRP Activity (EC1.5) (Trp peptide assay): B (B (EC1.5 1-25 μM))
- Emax [1]: > 150%
SMILES: COC(=O)CNC(=O)c1ccc2c(n1)N(C(=O)Nc1ccccn1)[C@H]1CCN2C1 [methyl 2-{[(9S)-8-[(pyridin-2-yl)carbamoyl]-1,6,8-triazatricyclo[7.2.1.0^{2,7}]dodeca-2(7),3,5-trien-5-yl]formamido}acetate]

- Tryp AVG EC1.5 (μM) [3]: B (B (EC1.5 1-25 μM))
SMILES: C#CCOc1cccc(NC(=O)N2c3nc(-c4ccc(C5(C(F)(F)F)N=N5)cc4)ccc3N3CC[C@H]2C3)c1 [Example 802]

- TRP Activity (EC1.5) (Trp peptide assay): A (A (EC1.5<1 μM))
- Emax [1]: > 150%
SMILES: Cc1cc(-c2ccc3c(n2)N(C(=O)Nc2ccccn2)[C@H]2CCCN3C2)ccn1 [(9S)-5-(2-methylpyridin-4-yl)-N-(pyridin-2-yl)-1,6,8-triazatricyclo[7.3.1.0 {2,7}]trideca-2(7),3,5-triene-8-carboxamide]

- Tryp AVG EC1.5 (μM) [3]: A (A (EC1.5<1 μM))
SMILES: CC(=O)NCc1ccc(NC(=O)N2c3nc(-c4cccc(C(F)(F)F)c4)ccc3N3CCC[C@H]2C3)cc1 [Example 790]

- Tryp AVG EC1.5 (μM) [2]: A (A (EC1.5<1 μM))
SMILES: O=C(Nc1cccc(-n2cncn2)c1)N1c2nc(-c3cccc(C(F)(F)F)c3)ccc2N2CC[C@H]1C2 [Example 581]

- Tryp AVG EC1.5 (μM) [4]: A (A (EC1.5<1 μM))
SMILES: O=C1OCc2ccc(NC(=O)N3c4nc(-c5cccc(C(F)(F)F)c5)ccc4N4CC[C@H]3C4)cc21 [Example 93]

- Tryp AVG EC1.5 (μM) [4]: C (C (EC1.5>25 μM))
SMILES: CCN(CC)C(=O)N1c2nc(-c3cccc(C(F)(F)F)c3)ccc2N2CC[C@H]1C2 [Example 52]

- Tryp AVG EC1.5 (μM) [2]: B (B (EC1.5 1-25 μM))
SMILES: Cc1c(-c2ccc3c(n2)N(C(=O)Nc2cccnc2)[C@H]2CCN3C2)cnn1C [Example 489]

The remaining lines, values behind:

SMILES: O=C(Nc1cnccn1)N1c2nc(-c3ccn[nH]3)ccc2N2CC[C@H]1C2 [(9S)-N-(pyrazin-2-yl)-5-(1H-pyrazol-5-yl)-1,6,8-triazatricyclo[7.2.1.0 {2,7}]dodeca-2(7),3,5-triene-8-carboxamide]
- TRP Activity (EC1.5) (Trp peptide assay): B (B (EC1.5 1-25 μM))
- Emax [1]: > 150%

SMILES: Cc1cnc2c(NC(=O)N3c4nc(-c5cccc(C(F)(F)F)c5)ccc4N4CC[C@H]3C4)cccc2n1 [76 (8)]
- Tryp AVG EC1.5 (μM) [4]: A (A (EC1.5<1 μM))

SMILES: COc1cc(NC(=O)N2c3nc(-c4cncc(Cl)c4)ccc3N3CCC[C@H]2C3)ncn1 [Example 405]
- Tryp AVG EC1.5 (μM) [5]: A (A (EC1.5<1 μM))

SMILES: O=C(NCCc1ccccn1)N1c2nc(-c3cccc(C(F)(F)F)c3)ccc2N2CC[C@H]1C2 [Example 614]
- Tryp AVG EC1.5 (μM) [2]: B (B (EC1.5 1-25 μM))

SMILES: Cc1cc(-c2ccc3c(n2)N(C(=O)Nc2cnccn2)[C@H]2CCN3C2)c(F)cn1 [(9S)-5-(5-fluoro-2-methylpyridin-4-yl)-N-(pyrazin-2-yl)-1,6,8-triazatricyclo[7.2.1.0 {2,7}]dodeca-2(7),3,5-triene-8-carboxamide]
- TRP Activity (EC1.5) (Trp peptide assay): B (B (EC1.5 1-25 μM))
- Emax [1]: > 150%

SMILES: FC(F)(F)c1cccc(-c2ccc3c(n2)N(C(=S)Nc2cccc(-c4cnco4)c2)[C@H]2CCN3C2)c1 [Example 763]
- Tryp AVG EC1.5 (μM) [3]: A (A (EC1.5<1 μM))

SMILES: CCOc1ncc(-c2ccc3c(n2)N(C(=O)Nc2cnccn2)[C@H]2CCN3C2)cc1C#N [(9S)-5-(5-cyano-6-ethoxypyridin-3-yl)-N-(pyrazin-2-yl)-1,6,8-triazatricyclo[7.2.1.0^{2,7}]dodeca-2(7),3,5-triene-8-carboxamide]
- TRP Activity (EC1.5) (Trp peptide assay): C (C (EC1.5>25 μM))
- Emax [1]: < 150%

SMILES: O=C(Nc1cnccn1)N1c2nc(N3CCOC(C4CC4)C3)ccc2N2CC[C@H]1C2 (stereo partly drawn) [(9S)-5-(2-cyclopropylmorpholin-4-yl)-N-(pyrazin-2-yl)-1,6,8-triazatricyclo[7.2.1.0 {2,7}]dodeca-2,4,6-triene-8-carboxamide]
- TRP Activity (EC1.5) (Trp peptide assay): B (B (EC1.5 1-25 μM))
- Emax [1]: > 150%

SMILES: C#CCOc1cc(-c2ccc3c(n2)N(C(=O)Nc2cccc(C4(C(F)(F)F)N=N4)c2)[C@H]2CCN3C2)cc(C(F)(F)F)c1 [Example 800]
- Tryp AVG EC1.5 (μM) [3]: C (C (EC1.5>25 μM))

SMILES: O=C(Nc1ccccn1)N1c2nc(-c3cccc(Cl)c3)ccc2N2CCC[C@H]1C2 [Example 387]
- Tryp AVG EC1.5 (μM) [5]: A (A (EC1.5<1 μM))

SMILES: O=C(Nc1ccncc1F)N1c2nc(-c3cccc(CC(O)CO)c3)ccc2N2CC[C@H]1C2 (stereo partly shown) [Example 357]
- Tryp AVG EC1.5 (μM) [5]: B (B (EC1.5 1-25 μM))

SMILES: O=C(Nc1cccnc1)N1c2nc(C3CCCC(C(F)(F)F)C3)ccc2N2CC[C@H]1C2 (stereo partly shown) [Example 99]
- Tryp AVG EC1.5 (μM) [4]: A (A (EC1.5<1 μM))

SMILES: COc1cc(-c2ccc3c(n2)N(C(=O)Nc2cnccn2)[C@H]2CCN3C2)ccn1 [(9S)-5-(2-methoxypyridin-4-yl)-N-(pyrazin-2-yl)-1,6,8-triazatricyclo[7.2.1.0 {2,7}]dodeca-2(7),3,5-triene-8-carboxamide]
- TRP Activity (EC1.5) (Trp peptide assay): B (B (EC1.5 1-25 μM))
- Emax [1]: > 150%

SMILES: CS(=O)(=O)c1cccc(-c2ccc3c(n2)N(C(=O)Nc2cnccn2)[C@H]2CCN3C2)c1 [Example 415]
- Tryp AVG EC1.5 (μM) [5]: A (A (EC1.5<1 μM))

SMILES: COc1cc(NC(=O)N2c3nc(-c4cncc(C(F)(F)F)c4)ccc3N3CCC[C@H]2C3)ncn1 [Example 394]
- Tryp AVG EC1.5 (μM) [5]: A (A (EC1.5<1 μM))

SMILES: C[C@@H]1CCN(C)c2ccc(-c3cccc(CC(O)CO)c3)nc2N1C(=O)Nc1ccc(F)cn1 (stereo partly shown) [Example 356]
- Tryp AVG EC1.5 (μM) [5]: A (A (EC1.5<1 μM))
- Emax (Trp mass spectrometry assay, percent maximum fold activation of SIRT1, read-out: Tryp % Fold Act): > 150%

SMILES: Cc1cncc(-c2ccc3c(n2)N(C(=O)Nc2ccncn2)[C@H]2CCCN3C2)c1 [Example 517]
- Tryp AVG EC1.5 (μM) [2]: A (A (EC1.5<1 μM))
